From ChEMBL document CHEMBL1142309, “The discovery of GSK221149A: a potent and selective oxytocin antagonist” (Bioorg Med Chem Lett, 2008)
≈ marks a conversion by molar mass, not a printed value. Where a SMILES comes first, the peptide text is derived from it. Bridges are numbered along the chain shown (N, C = ends). [ ]: non-standard residue; d: D form. Orn = NCCC[C@H](N)C(=O)O; Mpa = O=C(O)CCS

Legend:
Oxytocin receptor = molecular target: T1, Oxytocin receptor (Homo sapiens, UniProt P30559); experiment: Binding affinity to human oxytocin receptor
T1 sequence (P30559 whole entry): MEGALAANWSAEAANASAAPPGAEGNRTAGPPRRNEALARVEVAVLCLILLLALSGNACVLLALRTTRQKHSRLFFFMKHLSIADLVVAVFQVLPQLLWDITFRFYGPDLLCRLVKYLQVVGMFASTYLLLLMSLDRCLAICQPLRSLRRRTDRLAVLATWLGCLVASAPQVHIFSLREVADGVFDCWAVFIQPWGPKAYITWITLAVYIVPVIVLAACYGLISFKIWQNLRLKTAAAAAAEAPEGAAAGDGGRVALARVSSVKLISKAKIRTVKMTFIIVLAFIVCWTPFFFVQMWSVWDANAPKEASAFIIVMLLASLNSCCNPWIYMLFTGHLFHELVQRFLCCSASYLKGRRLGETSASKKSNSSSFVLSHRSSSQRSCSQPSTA

Vasopressin V2 receptor = Vasopressin V2 receptor (Homo sapiens, UniProt P30518); experiment: Binding affinity to human vasopressin V2 receptor
[1] = molecular target: Oxytocin receptor (Rattus norvegicus) (UniProt P70536); experiment: Binding affinity to recombinant oxytocin receptor
Vasopressin V1a receptor = Vasopressin V1a receptor (Homo sapiens, UniProt P37288); experiment: Binding affinity to human vasopressin V1a receptor
Vasopressin V1b receptor = molecular target: T2, Vasopressin V1b receptor (Homo sapiens, UniProt P47901); experiment: Binding affinity to human vasopressin V1b receptor
T2 sequence (P47901 whole entry): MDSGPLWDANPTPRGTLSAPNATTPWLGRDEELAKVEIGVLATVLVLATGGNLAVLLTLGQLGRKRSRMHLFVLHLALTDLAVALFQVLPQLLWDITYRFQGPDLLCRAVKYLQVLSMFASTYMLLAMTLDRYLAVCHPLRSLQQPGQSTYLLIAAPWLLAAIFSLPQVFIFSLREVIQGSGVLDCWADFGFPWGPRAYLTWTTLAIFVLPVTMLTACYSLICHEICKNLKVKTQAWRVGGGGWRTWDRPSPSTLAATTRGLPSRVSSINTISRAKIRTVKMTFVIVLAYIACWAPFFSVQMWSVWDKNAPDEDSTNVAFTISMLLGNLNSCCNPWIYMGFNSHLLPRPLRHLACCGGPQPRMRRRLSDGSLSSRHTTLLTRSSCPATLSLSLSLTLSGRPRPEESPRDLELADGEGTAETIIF

[2] = Aqueous solubility of the compound; format: physicochemical; settings: buffer
[3] = Selectivity for human oxytocin receptor over vasopressin V1a receptor
Cytochrome P450 3A4 = Cytochrome P450 3A4 (Homo sapiens, UniProt P08684); experiment: Inhibition of CYP3A4; format: ADME
[4] = Binding affinity to human serum albumin; format: ADME, cell-free; settings: read-out: PB (converted)
[5] = AUC in rat at 5 mg/kg, po in DMSO/PEG400 formulation; format: ADME, organism-based; set-up: dose 5 mg/kg, route oral; settings: plasma
[6] = Distribution coefficient, log D of the compound; format: physicochemical; settings: chromatographic
[7] = AUC in rat at 5 mg/kg, po in HPMC/Tween formulation; format: ADME, organism-based; set-up: dose 5 mg/kg, route oral; settings: plasma
Rattus norvegicus = experiment: Decrease in oxytocin-induced uterine contractions in iv dosed non-pregnant Sprague-Dawley rat; format: functional, organism-based
[8] = Bioavailability in rat at 2 mg/kg, iv or 5 mg/kg, po; format: ADME, organism-based; settings: in vivo
[9] = Clearance in rat at 2 mg/kg, iv or 5 mg/kg, po; format: ADME, organism-based; settings: in vivo
[10] = Half life in rat at 2 mg/kg, iv or 5 mg/kg, po; format: ADME, organism-based; settings: in vivo

Sequence of Cytochrome P450 3A4 (P08684 whole entry): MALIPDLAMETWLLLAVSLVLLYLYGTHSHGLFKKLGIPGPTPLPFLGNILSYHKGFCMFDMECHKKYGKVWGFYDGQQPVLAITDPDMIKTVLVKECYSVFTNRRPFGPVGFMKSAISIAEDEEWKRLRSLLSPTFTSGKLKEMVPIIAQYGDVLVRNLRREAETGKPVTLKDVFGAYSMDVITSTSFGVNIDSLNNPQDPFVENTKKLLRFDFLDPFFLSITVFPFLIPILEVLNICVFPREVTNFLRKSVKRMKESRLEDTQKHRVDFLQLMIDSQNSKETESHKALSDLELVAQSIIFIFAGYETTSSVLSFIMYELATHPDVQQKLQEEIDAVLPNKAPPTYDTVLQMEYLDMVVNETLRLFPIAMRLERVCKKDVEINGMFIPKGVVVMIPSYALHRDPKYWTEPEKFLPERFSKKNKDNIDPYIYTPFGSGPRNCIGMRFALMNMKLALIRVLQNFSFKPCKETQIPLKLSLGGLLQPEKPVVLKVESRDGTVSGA
Sequence of Vasopressin V1a receptor (P37288 whole entry): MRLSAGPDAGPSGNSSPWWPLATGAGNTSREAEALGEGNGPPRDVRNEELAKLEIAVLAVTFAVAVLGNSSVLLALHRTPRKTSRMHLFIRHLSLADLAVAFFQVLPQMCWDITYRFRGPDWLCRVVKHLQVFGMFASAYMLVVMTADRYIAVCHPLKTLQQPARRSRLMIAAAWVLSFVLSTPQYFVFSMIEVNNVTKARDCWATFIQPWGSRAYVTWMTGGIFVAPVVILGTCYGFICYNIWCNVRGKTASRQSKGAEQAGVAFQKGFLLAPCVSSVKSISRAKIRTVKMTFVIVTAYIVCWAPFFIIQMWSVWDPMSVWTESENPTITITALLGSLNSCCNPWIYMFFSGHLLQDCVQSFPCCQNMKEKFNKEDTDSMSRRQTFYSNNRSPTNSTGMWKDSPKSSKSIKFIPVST
Sequence of Vasopressin V2 receptor (P30518 whole entry): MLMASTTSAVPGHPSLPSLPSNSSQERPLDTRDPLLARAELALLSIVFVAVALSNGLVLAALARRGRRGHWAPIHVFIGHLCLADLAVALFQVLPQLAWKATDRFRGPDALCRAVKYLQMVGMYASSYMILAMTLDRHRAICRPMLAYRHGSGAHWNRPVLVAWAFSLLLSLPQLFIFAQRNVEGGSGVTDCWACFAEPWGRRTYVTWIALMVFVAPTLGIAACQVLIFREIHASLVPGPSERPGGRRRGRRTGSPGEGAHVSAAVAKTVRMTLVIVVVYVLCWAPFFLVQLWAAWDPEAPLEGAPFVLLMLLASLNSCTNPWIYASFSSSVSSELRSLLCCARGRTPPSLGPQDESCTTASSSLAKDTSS
Sequence of Oxytocin receptor (Rattus norvegicus) (P70536 whole entry, looked up): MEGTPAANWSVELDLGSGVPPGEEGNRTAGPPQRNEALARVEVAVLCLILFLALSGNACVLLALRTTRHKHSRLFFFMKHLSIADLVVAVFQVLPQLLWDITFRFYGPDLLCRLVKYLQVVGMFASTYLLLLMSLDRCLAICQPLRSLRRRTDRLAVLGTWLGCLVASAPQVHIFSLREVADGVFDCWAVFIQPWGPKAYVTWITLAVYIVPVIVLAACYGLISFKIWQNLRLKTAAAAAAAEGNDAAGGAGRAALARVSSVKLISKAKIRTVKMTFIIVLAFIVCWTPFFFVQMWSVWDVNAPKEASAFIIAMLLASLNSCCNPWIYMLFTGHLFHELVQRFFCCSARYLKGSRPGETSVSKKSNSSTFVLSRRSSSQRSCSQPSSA

solubility [2]	IC50 (Cytochrome P450 3A4)	Ki (Oxytocin receptor; read-out: Log Ki (converted))	fraction unbound [4]	SMILES	other results
–	–	–	–	CCOc1ccc(C[C@H]2NC(=O)CCSSC[C@@H](C(=O)N3CCC[C@H]3C(=O)N[C@@H](CCCN)C(=O)NCC(N)=O)NC(=O)[C@H](CC(N)=O)NC(=O)[C@H]([C@@H](C)O)NC(=O)[C@H]([C@@H](C)CC)NC2=O)cc1 [ATOSIBAN] ([Mpa][dY](Et)ITNCP[Orn]G-NH2; disulfide 1-6)	Ki (Oxytocin receptor; read-out: Ki): 11 nM; Ki (Vasopressin V2 receptor): 330 nM; Ki [1]: 32 nM; Ki (Vasopressin V1a receptor): 0.15 nM; Ki (Vasopressin V1b receptor): 44 nM
> 220 µg/mL	> 100000 nM	1.26 nM	> 0.2	Cc1nc([C@H](C(=O)N(C)CCO)N2C(=O)[C@@H](C3Cc4ccccc4C3)NC(=O)[C@H]2CC(C)C)co1	Selectivity ratio [3]: > 10; AUC [5]: 218 ng·h/mL
> 240 µg/mL	> 100000 nM	1.26 nM	0.37	Cc1nc([C@H](C(=O)NC(C)C)N2C(=O)[C@@H](C3Cc4ccccc4C3)NC(=O)[C@H]2CC(C)C)co1	Selectivity ratio [3]: > 10; logD [6]: 2.5; AUC [5]: 225 ng·h/mL
< 1 µg/mL	4000 nM	–	0.07	CC(C)C[C@@H]1C(=O)N[C@H](C2Cc3ccccc3C2)C(=O)N1[C@@H](C(=O)NC(C)C)c1ccc(F)cc1F	logD [6]: 3.4
–	–	0.158 nM	–	CC(C)C[C@@H]1C(=O)N[C@H](C2Cc3ccccc3C2)C(=O)N1[C@@H](C(=O)NC(C)C)c1coc(C(F)(F)F)n1	–
< 1 µg/mL	1000 nM	2 nM	0.01	CC(C)C[C@@H]1C(=O)N[C@H](C2Cc3ccccc3C2)C(=O)N1[C@@H](C(=O)NC(C)C)c1ccc(Br)s1	logD [6]: 3.7
> 220 µg/mL	> 100000 nM	–	> 0.2	CC[C@H](C)[C@@H]1C(=O)N[C@H](C2Cc3ccccc3C2)C(=O)N1[C@@H](C(=O)N1CCOCC1)c1coc(C)n1 [RETOSIBAN]	AUC [7]: 1800 ng·h/mL; IC50 (Rattus norvegicus): 180 nM; ED50 (Rattus norvegicus; iv, read-out: ID50 (the source's name)): 0.27 mg/kg; Ki (Vasopressin V2 receptor): 950 nM; bioavailability [8]: 100%; clearance [9]: 19 mL/min/kg; half-life [10]: 1.4 h; AUC [5]: 5470 ng·h/mL; Ki (Vasopressin V1a receptor): > 12000 nM; Ki (Vasopressin V1b receptor): > 10000 nM
> 220 µg/mL	> 100000 nM	–	> 0.2	CC[C@@H](C)[C@@H]1C(=O)N[C@H](C2Cc3ccccc3C2)C(=O)N1[C@@H](C(=O)N1CCOCC1)c1coc(C)n1	bioavailability [8]: 69%; clearance [9]: 14 mL/min/kg; half-life [10]: 1.3 h; AUC [5]: 4200 ng·h/mL
–	–	2.51 nM	–	CC(C)C[C@@H]1C(=O)N[C@H](C2Cc3ccccc3C2)C(=O)N1[C@@H](C(=O)NC(C)C)c1ccc(-c2ccccn2)s1	–
–	–	0.794 nM	–	CC(C)C[C@@H]1C(=O)N[C@H](C2Cc3ccccc3C2)C(=O)N1[C@@H](C(=O)N(C)C)c1coc(C2CC2)n1	–
–	–	1 nM	–	CC(C)C[C@@H]1C(=O)N[C@H](C2Cc3ccccc3C2)C(=O)N1[C@@H](C(=O)NC(C)C)c1cc(Br)cs1	–
> 220 µg/mL	> 100000 nM	1.58 nM	> 0.2	Cc1nc([C@H](C(=O)N2CCC2)N2C(=O)[C@@H](C3Cc4ccccc4C3)NC(=O)[C@H]2CC(C)C)co1	Selectivity ratio [3]: > 10; bioavailability [8]: 45%; clearance [9]: 35 mL/min/kg; half-life [10]: 1.4 h; AUC [5]: 1070 ng·h/mL
–	–	1.26 nM	–	Cc1cc([C@H](C(=O)NC(C)C)N2C(=O)[C@@H](C3Cc4ccccc4C3)NC(=O)[C@H]2CC(C)C)oc1C	–
–	–	39.8 nM	–	CNC(=O)c1ccc([C@H](C(=O)NC(C)C)N2C(=O)[C@@H](C3Cc4ccccc4C3)NC(=O)[C@H]2CC(C)C)o1	–
< 1 µg/mL	3000 nM	0.1 nM	0.03	CC(C)C[C@@H]1C(=O)N[C@H](C2Cc3ccccc3C2)C(=O)N1[C@@H](C(=O)NC(C)C)c1ccc(C(F)(F)F)o1	logD [6]: 3.6
34 µg/mL (≈ 73 µM)	7000 nM	1 nM	0.04	Cc1ccc([C@H](C(=O)NC(C)C)N2C(=O)[C@@H](C3Cc4ccccc4C3)NC(=O)[C@H]2CC(C)C)o1	logD [6]: 3.3
–	–	0.398 nM	–	Cc1nc([C@H](C(=O)N(C)C)N2C(=O)[C@@H](C3Cc4ccccc4C3)NC(=O)[C@H]2CC(C)C)cs1	–
–	–	3.16 nM	–	Cc1nc([C@H](C(=O)N(C)C)N2C(=O)[C@@H](C3Cc4ccccc4C3)NC(=O)[C@H]2CC(C)C)c(C)o1	–
–	–	0.794 nM	–	CC(C)C[C@@H]1C(=O)N[C@H](C2Cc3ccccc3C2)C(=O)N1[C@@H](C(=O)NC(C)C)c1ccc(Br)o1	–
–	–	6.31 nM	–	CC(C)C[C@@H]1C(=O)N[C@H](C2Cc3ccccc3C2)C(=O)N1[C@@H](C(=O)NC(C)C)c1ccco1	–
> 220 µg/mL	> 100000 nM	2 nM	> 0.2	Cc1nc([C@H](C(=O)N2CCOCC2)N2C(=O)[C@@H](C3Cc4ccccc4C3)NC(=O)[C@H]2CC(C)C)co1	Selectivity ratio [3]: > 10; AUC [7]: 1190 ng·h/mL; bioavailability [8]: 33%; clearance [9]: 23 mL/min/kg; half-life [10]: 1.1 h; AUC [5]: 3630 ng·h/mL
–	–	6.31 nM	–	CC(C)C[C@@H]1C(=O)N[C@H](C2Cc3ccccc3C2)C(=O)N1[C@@H](C(=O)NC(C)C)c1cccs1	–
–	–	12.6 nM	–	CC(C)C[C@@H]1C(=O)N[C@H](C2Cc3ccccc3C2)C(=O)N1[C@@H](C(=O)NC(C)(C)C)c1ccoc1	–
